Measurements from patent publication US20210252008A1, “BIARYL COMPOSITIONS AND METHODS FOR MODULATING A KINASE CASCADE” (Athenex, Inc., priority 2004, published 2021).

Assays:
[1] = test system: osteoclast precursors derived from spleen cells; test: Effect on osteoclast formation; assay type: cell-based; details: 5 days, RANKL and M-CSF
Description: To determine the effect of the compounds on osteoclast formation, the compounds were added to osteoclast precursors derived from spleen cells. For the generation of spleen-derived osteoclasts, spleen cells comprising osteoclast precursors were treated with Rapamycin, KX1-141, KX2-328 (Astrazeneca compound), or KX1-329 for 5 days in the presence of receptor activator of nuclear factor-KB ligand (RANKL) and macrophage colony-stimulating factor (M-CSF). In in vitro murine or human osteoclast models, soluble RANKL enables osteoclast precursors to differentiate in the presence of M-CSF (Quinn, et al.; 1998, Endocrinology, 139, 4424-4427; Jimi, et al.; 1999, J. Immunol., 163, 434-442). The untreated control cells were incubated in the presence of RANKL and M-CSF alone. Rapamycin was used as a positive control for the inhibition of osteoclast formation.
For generating spleen-derived osteoclasts, spleen cells were treated as described above. […] Cells were then stained with the osteoclast marker, tartrate-resistant acid phosphatase (TRAP) to visualize differentiated cells. The numbers of TRAP-positive osteoclasts were counted.

osteoclasts = test: Effect on osteoclast survival; assay type: cell-based; details: 48 hours, RANKL and M-CSF
Description: To determine the effect of the compounds on osteoclast survival, osteoclasts were treated with Rapamycin, KX1-141, KX2-328, or KX1-329 for 48 hours in the presence of RANKL and M-CSF. The untreated, control cells were incubated in the presence of RANKL and M-CSF alone. Rapamycin was used as a positive control for the inhibition of osteoclast survival.
As described above, osteoclasts were treated with Rapamycin, KX1-141, KX2-328, or KX1-329 for 48 hours in the presence of RANKL and M-CSF. […] Cells were then stained with TRAP and the number of TRAP-positive osteoclasts were counted.

[2] = test system: Chinchillas, noise-induced hearing loss; test: Protection against noise-induced hearing loss; assay type: in vivo; details: chinchilla; round window application; 4 kHz band noise 105 dB SPL four hours; day 1, 7, 21; in most cases
Description: Chinchillas (N=6) were used in studies of noise-induced hearing loss. The animals' hearing sensitivity was measured using standard electrophysical techniques before the experimental manipulation. […] Animals were anesthetized, the auditory bullae were opened, and the left and right cochleas were visualized. The round window leading to the scala tympani of the cochlea was used as the access point for drug application. Animals were treated with KX1-004, KX1-141, KX1-329 or KX2-328 (a non-ATP competitive inhibitor from Astrazeneca), emulsified in DMSO, in […] of saline solution, which was placed on the round window of one ear. A control solution of 3 mM DMSO in […] of saline solution was placed on the round window of the other ear. The solution was allowed to set on the round window for 30 minutes, then the auditory bullae were closed. […] Following the noise exposure, the animals' hearing was tested at day 1, day 7, and day 21 to determine evoked potential threshold shifts. Permanent threshold shift was assessed at day 21.
FIGS. 10-12 show the average threshold shifts for animals treated with KX1-004, KX1-141, KX1-329 or KX2-328.

[3] = test system: osteoclasts on bone slices; test: Effect on bone resorption in vitro (bone slices); assay type: cell-based
Description: To determine the effects of the compounds on osteoclast formation on bone slices, the bone slices were treated with Rapamycin, KX1-141, KX2-328, or KX1-329. […] The number of osteoclasts on the bone slices were counted.
During the resorption of bone, osteoclasts form resorption pits. To determine the effects of the compounds on resorption pit formation on bone slices, the bone slices were treated with Rapamycin, KX1-141, KX2-328, or KX1-329, as described above. […] The number of resorption pits on the bone slices was determined.
Bone slices were treated as indicated above. […] The bone slices were then stained with TRAP.
Bone slices were treated as indicated above. […] The bone slices were stained with Toluidine Blue to reveal resorption pits, which are indicators of osteoclast-mediated resorption of bone.

She Y239/240 = test: Intracellular phosphorylation levels: She Y239/240; assay type: cell-based; details: c-Src/NIH-3T3 and HT-29 cells; FIG. 3
Description: (§1) HT29 (colon cancer) and c-Src527F/NIH-3T3 (Src transformed) cell lines were treated with KX2-391 or with AstraZeneca's ATP competitive Src inhibitor AZ28. AZ28 serves as a positive comparator to show what a validated Src inhibitor should do in these assays. After treatment with compound, cells were lysed, subjected to PAGE and probed with a battery of antibodies. […] In addition, off-target protein phosphorylation was also investigated. Further, induction of apoptosis was evaluated via Caspase 3 cleavage. Multiple doses of each compound were tested because the trends in response to increasing drug concentration are the most reliable indicator of activity.
(§2) The same range of multiples of the GI50 for AZ28 in these two cell lines was run as a comparison.

FAK Tyr 925 = test: Intracellular phosphorylation levels: FAK Tyr 925; assay type: cell-based; details: c-Src/NIH-3T3 and HT-29 cells; FIG. 2
Description: as §1, §2

Paxillin Y-31 = test: Intracellular phosphorylation levels: Paxillin Y-31; assay type: cell-based; details: c-Src/NIH-3T3 cells; FIG. 4
Description: as §1, §2
Note: paxillin Y-31 was not detected in HT29 cells with or without added drug.

FAK Y397 = test: FAK autophosphorylation in cells; assay type: cell-based; details: c-Src527F/NIH3T3 cells; FIG. 8
Description: as §1, §2
FAK Y397 is mainly a FAK autophosphorylation site and only a poor Src transphorylation site. AZ28 is […] FAK inhibitor (see isolated enzyme data in Table 5). However, no inhibition of FAK autophosphorylation in c-Src527F/NIH3T3 cells is seen with KX-391.

CHK1(h) = CHK1(h) (Homo sapiens, UniProt O14757); test: Inhibition of isolated kinases; assay type: biochemical; details: compound @ 10 μM
IGF-1R(h) = IGF-1R(h) (Homo sapiens, UniProt P08069); test: Inhibition of isolated kinases; assay type: biochemical; details: compound @ 10 μM
Text: (§3) Table 5 illustrates percent activity of isolated kinases in the presence of the AstraZeneca ATP-competitive inhibitor (KX-328, AZ-28) or KX2-391 relative to control (untreated) isolated kinases.

Lyn(h) = Lyn(h) (Homo sapiens, UniProt P07948); test: Inhibition of isolated kinases; assay type: biochemical; details: compound @ 10 μM
Text: as §3

Yes(h) = Yes(h) (Homo sapiens, UniProt P07947); test: Inhibition of isolated kinases; assay type: biochemical; details: compound @ 10 μM
Text: as §3

Lck(h) = Lck(h) (Homo sapiens, UniProt P06239); test: Inhibition of isolated kinases; assay type: biochemical; details: compound @ 10 μM
Text: as §3

FGFR2(h) = FGFR2(h) (Homo sapiens, UniProt P21802); test: Inhibition of isolated kinases; assay type: biochemical; details: compound @ 10 μM
Text: as §3

IR(h) = IR(h) (Homo sapiens, UniProt P06213); test: Inhibition of isolated kinases; assay type: biochemical; details: compound @ 10 μM
Text: as §3

PDGFRβ(h) = PDGFRβ(h) (Homo sapiens, UniProt P09619); test: Inhibition of isolated kinases; assay type: biochemical; details: compound @ 10 μM
Text: as §3

MAPK2(h) = MAPK2(h) (Homo sapiens, UniProt P28482); test: Inhibition of isolated kinases; assay type: biochemical; details: compound @ 10 μM
Text: as §3

PKCα(h) = PKCα(h) (Homo sapiens, UniProt P17252); test: Inhibition of isolated kinases; assay type: biochemical; details: compound @ 10 μM
Text: as §3

Pyk2(h) = Pyk2(h) (Homo sapiens, UniProt Q14289); test: Inhibition of isolated kinases; assay type: biochemical; details: compound @ 10 μM
Text: as §3

EGFR(h) = EGFR(h) (Homo sapiens, UniProt P00533); test: Inhibition of isolated kinases; assay type: biochemical; details: compound @ 10 μM
Text: as §3

PI3 kinase = test: Inhibition of isolated kinases; assay type: biochemical; details: compound @ 10 μM
Text: as §3

Fyn(h) = Fyn(h) (Homo sapiens, UniProt P06241); test: Inhibition of isolated kinases; assay type: biochemical; details: compound @ 10 μM
Text: as §3

ZAP-70(h) = ZAP-70(h) (Homo sapiens, UniProt P43403); test: Inhibition of isolated kinases; assay type: biochemical; details: compound @ 10 μM
Text: as §3

Abl(h) = Abl(h) (Homo sapiens, UniProt P00519); test: Inhibition of isolated kinases; assay type: biochemical; details: compound @ 10 μM
Text: as §3

[4] = test system: PDGF receptor tyrosine kinase Y572/574; test: PDGF receptor autophosphorylation in cells; assay type: cell-based; details: c-Src/NIH-3T3 cells; FIG. 7
Description: as §1, §2
This is thought not to be a direct Src substrate in cells.

[5] = test system: Guinea pigs, cisplatin-induced hearing loss; test: Protection against cisplatin-induced hearing loss; assay type: in vivo; details: guinea pig; subcutaneous, prior to cisplatin; FIG. 15
Description: The effects of high level noise and ototoxic drugs, such as cisplatin or the class of aminoglycosides, share several common features in the inner ear. First, the noise and/or drugs alter the free radi cal/anti oxidant levels in the cochlea (inner ear). […] Guinea pigs (N=7) were used in studies of cisplatin-induced hearing loss. The animals' hearing sensitivity was measured using standard electrophysical techniques before the experimental manipulation. […] Animals were anesthetized and treated with cisplatin. Subsequently, the animals' hearing was tested to determine evoked potential threshold shifts.
Animals were treated subcutaneously with KX1-004 prior to the cisplatin-induced hearing loss.

Chain of Yes(h) (P07947 whole entry): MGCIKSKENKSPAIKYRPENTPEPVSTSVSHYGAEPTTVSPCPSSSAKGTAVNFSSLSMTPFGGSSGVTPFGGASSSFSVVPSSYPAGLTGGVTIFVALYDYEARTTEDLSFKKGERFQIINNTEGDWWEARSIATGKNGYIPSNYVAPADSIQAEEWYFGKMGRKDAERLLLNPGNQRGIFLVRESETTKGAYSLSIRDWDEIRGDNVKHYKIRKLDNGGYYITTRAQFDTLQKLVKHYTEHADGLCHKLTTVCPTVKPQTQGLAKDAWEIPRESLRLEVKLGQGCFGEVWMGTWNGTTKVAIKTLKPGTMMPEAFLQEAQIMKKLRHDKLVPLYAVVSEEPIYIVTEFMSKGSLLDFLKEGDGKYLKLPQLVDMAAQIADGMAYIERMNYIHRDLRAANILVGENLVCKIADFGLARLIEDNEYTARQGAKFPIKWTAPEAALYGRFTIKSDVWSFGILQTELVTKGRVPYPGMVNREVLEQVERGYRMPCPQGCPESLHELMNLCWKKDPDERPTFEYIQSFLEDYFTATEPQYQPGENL
Chain of EGFR(h) (P00533 25-1210): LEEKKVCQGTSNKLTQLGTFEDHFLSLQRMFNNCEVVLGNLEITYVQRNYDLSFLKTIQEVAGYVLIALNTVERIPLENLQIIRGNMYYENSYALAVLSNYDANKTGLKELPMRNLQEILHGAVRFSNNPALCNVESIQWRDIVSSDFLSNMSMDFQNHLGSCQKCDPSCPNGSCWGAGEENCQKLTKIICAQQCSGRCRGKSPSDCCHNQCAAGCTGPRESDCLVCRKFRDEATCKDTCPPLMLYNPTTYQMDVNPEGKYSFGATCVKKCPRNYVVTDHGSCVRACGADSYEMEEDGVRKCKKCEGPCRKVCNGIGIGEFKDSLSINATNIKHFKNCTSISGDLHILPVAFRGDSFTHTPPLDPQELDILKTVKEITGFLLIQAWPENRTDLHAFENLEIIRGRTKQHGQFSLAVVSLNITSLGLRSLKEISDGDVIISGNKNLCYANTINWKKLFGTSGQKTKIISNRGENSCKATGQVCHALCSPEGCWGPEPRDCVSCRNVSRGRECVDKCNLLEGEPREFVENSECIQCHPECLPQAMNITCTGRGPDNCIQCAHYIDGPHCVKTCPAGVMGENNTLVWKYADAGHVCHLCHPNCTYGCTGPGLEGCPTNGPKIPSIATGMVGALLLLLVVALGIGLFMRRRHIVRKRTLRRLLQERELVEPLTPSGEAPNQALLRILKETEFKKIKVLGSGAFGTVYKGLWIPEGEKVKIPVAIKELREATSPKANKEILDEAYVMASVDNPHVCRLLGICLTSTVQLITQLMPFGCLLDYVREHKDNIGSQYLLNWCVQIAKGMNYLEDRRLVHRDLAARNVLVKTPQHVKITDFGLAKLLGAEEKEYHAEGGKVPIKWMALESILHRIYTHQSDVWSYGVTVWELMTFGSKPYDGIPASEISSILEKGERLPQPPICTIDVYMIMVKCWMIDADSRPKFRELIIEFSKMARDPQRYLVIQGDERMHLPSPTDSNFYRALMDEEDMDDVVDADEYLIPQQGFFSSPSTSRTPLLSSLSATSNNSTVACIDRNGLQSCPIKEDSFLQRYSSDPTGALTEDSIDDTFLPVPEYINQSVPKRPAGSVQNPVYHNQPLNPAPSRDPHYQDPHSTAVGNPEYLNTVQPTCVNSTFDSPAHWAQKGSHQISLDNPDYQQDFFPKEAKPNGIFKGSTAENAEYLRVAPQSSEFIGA
Chain of CHK1(h) (O14757 whole entry): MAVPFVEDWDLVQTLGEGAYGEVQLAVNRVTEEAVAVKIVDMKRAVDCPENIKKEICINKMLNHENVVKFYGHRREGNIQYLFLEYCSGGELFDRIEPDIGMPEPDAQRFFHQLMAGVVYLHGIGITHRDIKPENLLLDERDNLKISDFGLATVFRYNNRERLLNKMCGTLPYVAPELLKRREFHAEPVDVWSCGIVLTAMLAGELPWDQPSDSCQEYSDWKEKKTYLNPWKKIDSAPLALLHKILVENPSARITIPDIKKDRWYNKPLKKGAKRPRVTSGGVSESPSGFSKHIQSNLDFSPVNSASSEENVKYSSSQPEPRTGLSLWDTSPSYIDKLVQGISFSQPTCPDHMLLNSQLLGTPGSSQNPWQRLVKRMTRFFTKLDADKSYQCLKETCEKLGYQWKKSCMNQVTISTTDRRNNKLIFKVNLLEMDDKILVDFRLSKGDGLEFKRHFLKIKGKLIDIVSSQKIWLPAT
Chain of MAPK2(h) (P28482 whole entry): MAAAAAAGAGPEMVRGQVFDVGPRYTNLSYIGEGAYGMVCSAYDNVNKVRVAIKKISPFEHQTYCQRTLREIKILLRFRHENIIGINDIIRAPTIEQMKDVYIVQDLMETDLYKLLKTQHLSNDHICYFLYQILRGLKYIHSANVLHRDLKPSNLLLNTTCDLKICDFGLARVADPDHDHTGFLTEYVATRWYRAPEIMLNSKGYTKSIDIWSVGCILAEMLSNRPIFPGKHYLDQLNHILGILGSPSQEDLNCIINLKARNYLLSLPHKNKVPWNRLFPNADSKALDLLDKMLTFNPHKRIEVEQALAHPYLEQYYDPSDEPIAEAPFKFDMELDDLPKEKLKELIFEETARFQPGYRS
Chain of IR(h) (P06213 28-1382): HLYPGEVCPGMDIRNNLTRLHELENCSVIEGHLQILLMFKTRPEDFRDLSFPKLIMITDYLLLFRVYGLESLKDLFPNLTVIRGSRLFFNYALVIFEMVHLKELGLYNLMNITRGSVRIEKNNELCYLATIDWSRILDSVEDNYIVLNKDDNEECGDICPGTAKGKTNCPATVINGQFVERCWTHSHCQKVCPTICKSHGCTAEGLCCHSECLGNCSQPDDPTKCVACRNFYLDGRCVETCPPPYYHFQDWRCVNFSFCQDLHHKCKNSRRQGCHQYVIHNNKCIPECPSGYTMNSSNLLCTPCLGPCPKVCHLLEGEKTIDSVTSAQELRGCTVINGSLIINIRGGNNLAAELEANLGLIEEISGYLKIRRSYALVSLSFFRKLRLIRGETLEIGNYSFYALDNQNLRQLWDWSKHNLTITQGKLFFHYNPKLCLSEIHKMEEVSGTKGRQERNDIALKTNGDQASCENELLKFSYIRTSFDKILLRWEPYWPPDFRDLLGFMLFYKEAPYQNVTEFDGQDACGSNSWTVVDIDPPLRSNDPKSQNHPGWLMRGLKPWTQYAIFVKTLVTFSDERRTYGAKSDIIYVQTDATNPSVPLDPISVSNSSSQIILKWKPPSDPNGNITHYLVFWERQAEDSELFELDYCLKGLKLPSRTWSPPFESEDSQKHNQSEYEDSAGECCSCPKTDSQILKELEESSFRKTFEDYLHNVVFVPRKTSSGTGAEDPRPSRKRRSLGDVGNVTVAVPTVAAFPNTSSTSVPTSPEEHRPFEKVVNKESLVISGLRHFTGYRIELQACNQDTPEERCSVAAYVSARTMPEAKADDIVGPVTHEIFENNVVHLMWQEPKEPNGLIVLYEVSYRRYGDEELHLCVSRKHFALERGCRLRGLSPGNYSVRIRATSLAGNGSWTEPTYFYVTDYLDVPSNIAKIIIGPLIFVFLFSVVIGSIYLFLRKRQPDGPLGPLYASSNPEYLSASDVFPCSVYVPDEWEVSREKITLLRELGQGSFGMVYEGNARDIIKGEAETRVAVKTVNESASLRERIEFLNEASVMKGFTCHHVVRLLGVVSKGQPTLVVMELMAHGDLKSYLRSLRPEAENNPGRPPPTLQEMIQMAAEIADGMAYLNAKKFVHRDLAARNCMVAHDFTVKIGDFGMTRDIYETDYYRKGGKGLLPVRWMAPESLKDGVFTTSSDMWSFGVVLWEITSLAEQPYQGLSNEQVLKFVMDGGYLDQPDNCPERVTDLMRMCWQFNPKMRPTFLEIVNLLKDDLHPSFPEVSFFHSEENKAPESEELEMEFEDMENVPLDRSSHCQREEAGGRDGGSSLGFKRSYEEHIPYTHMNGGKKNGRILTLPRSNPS
Chain of ZAP-70(h) (P43403 whole entry): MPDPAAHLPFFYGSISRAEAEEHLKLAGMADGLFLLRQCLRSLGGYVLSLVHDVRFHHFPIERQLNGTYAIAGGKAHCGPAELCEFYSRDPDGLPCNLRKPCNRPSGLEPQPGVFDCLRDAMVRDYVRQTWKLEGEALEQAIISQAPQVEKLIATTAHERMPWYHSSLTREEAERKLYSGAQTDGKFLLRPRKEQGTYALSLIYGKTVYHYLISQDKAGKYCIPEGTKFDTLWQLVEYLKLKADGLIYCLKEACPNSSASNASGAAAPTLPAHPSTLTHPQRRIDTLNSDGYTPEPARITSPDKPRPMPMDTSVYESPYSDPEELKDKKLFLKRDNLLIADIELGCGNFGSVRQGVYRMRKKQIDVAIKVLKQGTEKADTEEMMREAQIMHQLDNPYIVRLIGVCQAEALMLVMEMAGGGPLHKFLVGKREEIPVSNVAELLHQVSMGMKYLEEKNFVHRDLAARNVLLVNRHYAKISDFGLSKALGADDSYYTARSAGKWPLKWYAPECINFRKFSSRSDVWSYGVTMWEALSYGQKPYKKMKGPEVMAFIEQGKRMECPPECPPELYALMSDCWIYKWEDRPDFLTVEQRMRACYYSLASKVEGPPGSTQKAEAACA
Chain of Lck(h) (P06239 whole entry): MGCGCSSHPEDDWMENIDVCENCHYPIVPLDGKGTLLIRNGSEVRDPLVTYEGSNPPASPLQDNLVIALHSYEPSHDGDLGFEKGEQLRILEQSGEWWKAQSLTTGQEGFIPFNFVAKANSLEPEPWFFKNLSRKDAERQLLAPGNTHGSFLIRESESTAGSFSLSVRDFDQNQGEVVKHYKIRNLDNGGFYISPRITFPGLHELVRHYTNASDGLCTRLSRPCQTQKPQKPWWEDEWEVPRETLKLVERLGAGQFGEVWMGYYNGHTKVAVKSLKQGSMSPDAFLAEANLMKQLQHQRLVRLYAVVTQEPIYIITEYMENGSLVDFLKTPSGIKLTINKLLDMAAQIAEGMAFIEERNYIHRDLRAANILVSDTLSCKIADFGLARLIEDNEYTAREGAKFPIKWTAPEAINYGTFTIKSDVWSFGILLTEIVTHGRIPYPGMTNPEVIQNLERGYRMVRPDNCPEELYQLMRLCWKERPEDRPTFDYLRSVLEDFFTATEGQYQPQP

O=C(Cc1ccc(-c2ccccc2)cn1)NCc1cccc(F)c1 [KX1-329]
number of TRAP-positive osteoclasts vs untreated control (formation) ([1]; FIG. 17): reduced the number of TRAP-positive osteoclasts | formation of osteoclasts vs untreated control ([1]; stained, FIG. 16): inhibited the formation of osteoclasts | survival of osteoclasts vs untreated control (osteoclasts; FIG. 18): inhibited the survival of osteoclasts | number of TRAP-positive osteoclasts vs untreated control (survival) (osteoclasts; FIG. 19): reduced the number of TRAP-positive osteoclasts | average dB threshold shifts of treated ears vs control [2]: lower | number of osteoclasts on the bone slices vs untreated control ([3]; FIG. 20A): reduced the number of osteoclasts on the bone slices | number of resorption pits on the bone slices vs untreated control ([3]; FIG. 20B): reduced the number of resorption pits | number of TRAP-positive osteoclasts on the bone slices vs untreated control ([3]; TRAP stain, FIG. 21A): reduced the number of TRAP-positive osteoclasts | number of resorption pits on the bone slices vs untreated control ([3]; Toluidine Blue stain, FIG. 21B): reduced the number of resorption pits

O=C(Cc1ccc(-c2ccc(OCCN3CCOCC3)cc2)cn1)NCc1ccccc1 [KX2-391]
phosphorylation of She Y239/240 (Src trans-phosphorylation) (She Y239/240): inhibited | phosphorylation of FAK Tyr 925 (Src trans-phosphorylation) (FAK Tyr 925): inhibited | phosphorylation of Paxillin Y-31 (Src trans-phosphorylation) (Paxillin Y-31): inhibited | FAK autophosphorylation (Y397) (FAK Y397): no inhibition | percent activity of isolated kinase relative to control (untreated) (CHK1(h)): 105% | percent activity of isolated kinase relative to control (untreated) (IGF-1R(h)): 101% | percent activity of isolated kinase relative to control (untreated) (Lyn(h)): 113% | percent activity of isolated kinase relative to control (untreated) (Yes(h)): 92% | percent activity of isolated kinase relative to control (untreated) (Lck(h)): 109% | percent activity of isolated kinase relative to control (untreated) (FGFR2(h)): 94% | percent activity of isolated kinase relative to control (untreated) (IR(h)): 112% | percent activity of isolated kinase relative to control (untreated) (PDGFRβ(h)): 110% | percent activity of isolated kinase relative to control (untreated) (MAPK2(h)): 112% | percent activity of isolated kinase relative to control (untreated) (PKCα(h)): 111% | percent activity of isolated kinase relative to control (untreated) (Pyk2(h)): 97% | percent activity of isolated kinase relative to control (untreated) (EGFR(h)): 134% | percent activity of isolated kinase relative to control (untreated) (PI3 kinase): 100% | percent activity of isolated kinase relative to control (untreated) (Fyn(h)): 85% | percent activity of isolated kinase relative to control (untreated) (ZAP-70(h)): 108% | percent activity of isolated kinase relative to control (untreated) (Abl(h)): 120% | PDGF receptor autophosphorylation (Y572/574) [4]: Some effect

KX1-004
average dB threshold shifts of treated ears vs control [2]: lower | protection against cisplatin-induced hearing loss (median CAP thresholds) [5]: protected against cisplatin-induced hearing loss
